Legend:
[1] = biological target: Tyrosine-protein kinase Fes/Fps (Homo sapiens) (UniProt P07332); assay: Inhibition of recombinant human FES (2 to end residues) at 1 uM using poly(Glu,Tyr) 4:1 as substrate after 40 mins in presence of [gamma-33P]ATP by scintillation counting method
[2] = biological target: LIM domain kinase 1 (Homo sapiens) (UniProt P53667); assay: Inhibition of recombinant human LIMK1 (285 to 638 residues) at 1 uM using cofilin as substrate after 40 mins in presence of [gamma-33P]ATP by scintillation counting method
Sequence of LIM domain kinase 1 (Homo sapiens) (P53667 whole entry, looked up, the tested form may be a part): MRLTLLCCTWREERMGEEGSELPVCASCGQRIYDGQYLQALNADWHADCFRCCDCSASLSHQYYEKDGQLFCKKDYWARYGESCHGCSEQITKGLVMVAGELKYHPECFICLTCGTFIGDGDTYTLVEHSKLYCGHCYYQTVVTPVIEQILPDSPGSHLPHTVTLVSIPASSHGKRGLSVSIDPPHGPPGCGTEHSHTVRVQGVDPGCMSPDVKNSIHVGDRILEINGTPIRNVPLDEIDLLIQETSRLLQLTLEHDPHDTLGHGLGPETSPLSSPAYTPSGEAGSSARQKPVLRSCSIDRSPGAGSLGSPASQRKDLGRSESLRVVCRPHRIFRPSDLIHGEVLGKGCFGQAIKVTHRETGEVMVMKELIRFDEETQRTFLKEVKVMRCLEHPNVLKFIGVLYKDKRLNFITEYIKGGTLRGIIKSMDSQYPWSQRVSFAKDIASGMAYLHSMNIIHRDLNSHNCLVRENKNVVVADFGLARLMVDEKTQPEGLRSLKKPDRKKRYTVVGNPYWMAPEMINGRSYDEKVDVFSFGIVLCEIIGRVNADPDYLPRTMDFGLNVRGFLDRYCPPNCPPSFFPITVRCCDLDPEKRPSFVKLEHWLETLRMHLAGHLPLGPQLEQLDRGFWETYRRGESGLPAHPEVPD

[3] = biological target: CDK12/Cyclin K (Homo sapiens) (UniProt O75909+Q9NYV4); assay: Inhibition of recombinant full-length human CDK12/Cyclin K at 1 uM using RSRSRSRSRSRSRSR as substrate after 120 mins in presence of [gamma-33P]ATP by scintillation counting method; assay type: protein-complex assay
[4] = biological target: Ephrin type-A receptor 1 (Homo sapiens) (UniProt P21709); assay: Inhibition of recombinant human EPHA1 ([…]) at 1 uM using KKKSPGEYVNIEFG as substrate after 40 mins in presence of [gamma-33P]ATP by scintillation counting method
Sequence of Ephrin type-A receptor 1 (Homo sapiens) (P21709 whole entry): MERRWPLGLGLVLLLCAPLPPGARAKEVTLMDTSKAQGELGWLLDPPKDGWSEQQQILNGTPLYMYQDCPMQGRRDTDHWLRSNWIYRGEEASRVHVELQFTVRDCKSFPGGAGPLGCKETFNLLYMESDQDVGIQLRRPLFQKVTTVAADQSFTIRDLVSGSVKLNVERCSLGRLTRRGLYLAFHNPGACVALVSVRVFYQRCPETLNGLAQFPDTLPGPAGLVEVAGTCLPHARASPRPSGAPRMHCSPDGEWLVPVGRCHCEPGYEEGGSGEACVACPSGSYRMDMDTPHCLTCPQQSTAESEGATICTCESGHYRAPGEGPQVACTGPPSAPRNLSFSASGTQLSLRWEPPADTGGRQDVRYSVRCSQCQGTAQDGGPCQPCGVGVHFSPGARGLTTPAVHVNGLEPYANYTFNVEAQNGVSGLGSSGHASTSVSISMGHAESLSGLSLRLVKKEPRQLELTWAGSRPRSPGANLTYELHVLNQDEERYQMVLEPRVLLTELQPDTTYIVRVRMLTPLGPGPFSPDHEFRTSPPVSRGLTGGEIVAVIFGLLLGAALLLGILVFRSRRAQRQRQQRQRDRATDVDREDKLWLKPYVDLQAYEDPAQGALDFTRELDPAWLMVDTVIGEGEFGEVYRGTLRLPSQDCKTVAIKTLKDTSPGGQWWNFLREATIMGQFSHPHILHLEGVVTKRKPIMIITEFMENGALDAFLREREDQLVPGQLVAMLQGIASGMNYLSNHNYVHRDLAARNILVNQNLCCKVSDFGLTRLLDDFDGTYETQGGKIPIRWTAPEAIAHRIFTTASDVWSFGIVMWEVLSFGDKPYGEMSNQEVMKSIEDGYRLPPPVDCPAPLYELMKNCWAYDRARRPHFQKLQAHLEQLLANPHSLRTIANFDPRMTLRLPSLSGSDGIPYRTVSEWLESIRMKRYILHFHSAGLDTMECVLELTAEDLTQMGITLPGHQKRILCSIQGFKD

[5] = biological target: Mitogen-activated protein kinase 12 (Homo sapiens) (UniProt P53778); assay: Inhibition of recombinant full-length human SAPK3 at 1 uM using myelin basic protein as substrate after 40 mins in presence of [gamma-33P]ATP by scintillation counting method
Sequence of Mitogen-activated protein kinase 12 (Homo sapiens) (P53778 whole entry, the tested form may be a part): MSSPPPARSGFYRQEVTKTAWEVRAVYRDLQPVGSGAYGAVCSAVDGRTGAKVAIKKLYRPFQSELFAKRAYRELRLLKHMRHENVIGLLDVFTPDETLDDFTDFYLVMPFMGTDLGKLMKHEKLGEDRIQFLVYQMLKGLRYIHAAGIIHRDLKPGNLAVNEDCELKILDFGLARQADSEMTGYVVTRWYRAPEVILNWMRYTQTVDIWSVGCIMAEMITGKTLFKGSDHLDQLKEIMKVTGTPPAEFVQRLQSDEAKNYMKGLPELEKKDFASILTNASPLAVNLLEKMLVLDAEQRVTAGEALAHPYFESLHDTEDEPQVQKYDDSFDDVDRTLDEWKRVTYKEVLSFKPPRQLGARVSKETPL

[6] = biological target: Tau-tubulin kinase 2 (Homo sapiens) (UniProt Q6IQ55); assay: Inhibition of recombinant human TTBK2 (1 to 331 residues) at 1 uM using casein as substrate after 40 mins in presence of [gamma-33P]ATP by scintillation counting method
[7] = biological target: Phosphatidylinositol 3-kinase (Mus musculus) (UniProt P26450+P42337); assay: Inhibition of recombinant full-length mouse PI3K p110a/p85a at 1 uM using phosphatidylinositol 4,5-bisphosphate as substrate after 40 mins in presence of [gamma-33P]ATP by scintillation counting method; assay type: protein assay
[8] = biological target: Serine/threonine-protein kinase PAK 3 (Homo sapiens) (UniProt O75914); assay: Inhibition of recombinant full-length human PAK3 at 1 uM using RRRLSFAEPG as substrate after 40 mins in presence of [gamma-33P]ATP by scintillation counting method
[9] = biological target: Serine/threonine-protein kinase tousled-like 1 (Homo sapiens) (UniProt Q9UKI8); assay: Inhibition of recombinant full-length human TLK1 at 1 uM using casein as substrate after 40 mins in presence of [gamma-33P]ATP by scintillation counting method
[10] = biological target: Casein kinase II subunit alpha (Homo sapiens) (UniProt P68400); assay: Inhibition of recombinant full-length human CK2alpha1 at 1 uM using RRRDDDSDDD as substrate after 40 mins in presence of [gamma-33P]ATP by scintillation counting method
[11] = biological target: Vascular endothelial growth factor receptor 1 (Homo sapiens) (UniProt P17948); assay: Inhibition of recombinant human Flt1 (783 to end residues) at 1 uM using KKKSPGEYVNIEFG as substrate after 40 mins in presence of [gamma-33P]ATP by scintillation counting method
[12] = biological target: CDK9/cyclin T1 (Homo sapiens) (UniProt O60563+P50750); assay: Inhibition of recombinant full-length human CDK9/Cyclin T1 at 1 uM using KTFCGTPEYLAPEVRREPRILSEEEQEMFRDFDYIADWC as substrate after 40 mins in presence of [gamma-33P]ATP by scintillation counting method; assay type: protein-complex assay
[13] = biological target: Insulin receptor (Homo sapiens) (UniProt P06213); assay: Inhibition of recombinant human activated IR (1005 to 1310 residues) at 1 uM using KKKSPGEYVNIEFG as substrate after 40 mins in presence of [gamma-33P]ATP by scintillation counting method
Sequence of Insulin receptor (Homo sapiens) (P06213 28-758 limits assumed): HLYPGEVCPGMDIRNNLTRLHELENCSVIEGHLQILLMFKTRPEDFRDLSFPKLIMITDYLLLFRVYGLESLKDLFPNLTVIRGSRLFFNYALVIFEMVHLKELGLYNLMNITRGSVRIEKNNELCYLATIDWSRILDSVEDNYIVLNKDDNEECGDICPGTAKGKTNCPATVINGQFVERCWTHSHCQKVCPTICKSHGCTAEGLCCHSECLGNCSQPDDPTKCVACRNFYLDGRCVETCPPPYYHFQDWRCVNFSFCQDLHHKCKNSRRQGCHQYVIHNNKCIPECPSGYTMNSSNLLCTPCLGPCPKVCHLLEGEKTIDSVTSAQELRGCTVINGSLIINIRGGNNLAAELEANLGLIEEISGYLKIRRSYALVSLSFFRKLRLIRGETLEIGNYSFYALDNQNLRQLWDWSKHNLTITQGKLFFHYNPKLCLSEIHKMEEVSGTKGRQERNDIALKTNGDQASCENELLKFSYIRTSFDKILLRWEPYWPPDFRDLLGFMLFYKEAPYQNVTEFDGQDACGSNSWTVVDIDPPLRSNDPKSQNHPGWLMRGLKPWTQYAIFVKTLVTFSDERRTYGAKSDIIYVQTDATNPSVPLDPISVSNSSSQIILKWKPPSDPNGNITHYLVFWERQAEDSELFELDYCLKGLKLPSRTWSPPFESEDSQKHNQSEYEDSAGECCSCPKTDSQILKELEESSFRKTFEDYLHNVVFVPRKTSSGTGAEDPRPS
Sequence of Insulin receptor (Homo sapiens) (P06213 763-1382 limits assumed): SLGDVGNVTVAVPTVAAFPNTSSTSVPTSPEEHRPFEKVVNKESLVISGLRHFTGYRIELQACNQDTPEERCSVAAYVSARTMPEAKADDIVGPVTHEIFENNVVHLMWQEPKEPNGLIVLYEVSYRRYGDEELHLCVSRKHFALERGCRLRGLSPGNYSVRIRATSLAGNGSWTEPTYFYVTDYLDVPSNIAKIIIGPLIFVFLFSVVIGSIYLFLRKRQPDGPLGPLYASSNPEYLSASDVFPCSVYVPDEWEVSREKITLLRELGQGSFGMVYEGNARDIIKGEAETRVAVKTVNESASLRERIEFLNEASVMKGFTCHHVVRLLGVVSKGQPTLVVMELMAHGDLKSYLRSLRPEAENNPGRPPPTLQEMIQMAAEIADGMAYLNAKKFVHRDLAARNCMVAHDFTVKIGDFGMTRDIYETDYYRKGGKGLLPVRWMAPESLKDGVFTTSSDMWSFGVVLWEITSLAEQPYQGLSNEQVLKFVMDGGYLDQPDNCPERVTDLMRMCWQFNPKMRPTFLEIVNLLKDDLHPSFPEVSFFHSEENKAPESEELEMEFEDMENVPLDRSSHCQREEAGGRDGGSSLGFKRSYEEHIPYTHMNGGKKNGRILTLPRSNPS

[14] = biological target: Serine/threonine-protein kinase MRCK alpha (Homo sapiens) (UniProt Q5VT25); assay: Inhibition of recombinant human MRCKalpha (1 to 473 residues) at 1 uM using KKRNRTLTV as substrate after 40 mins in presence of [gamma-33P]ATP by scintillation counting method
[15] = biological target: Testis-specific serine/threonine-protein kinase 1 (Homo sapiens) (UniProt Q9BXA7); assay: Inhibition of recombinant full-length human TSSK1 at 1 uM using KKKVSRSGLYRSPSMPENLNRPR as substrate after 40 mins in presence of [gamma-33P]ATP by scintillation counting method
Sequence of Testis-specific serine/threonine-protein kinase 1 (Homo sapiens) (Q9BXA7 whole entry): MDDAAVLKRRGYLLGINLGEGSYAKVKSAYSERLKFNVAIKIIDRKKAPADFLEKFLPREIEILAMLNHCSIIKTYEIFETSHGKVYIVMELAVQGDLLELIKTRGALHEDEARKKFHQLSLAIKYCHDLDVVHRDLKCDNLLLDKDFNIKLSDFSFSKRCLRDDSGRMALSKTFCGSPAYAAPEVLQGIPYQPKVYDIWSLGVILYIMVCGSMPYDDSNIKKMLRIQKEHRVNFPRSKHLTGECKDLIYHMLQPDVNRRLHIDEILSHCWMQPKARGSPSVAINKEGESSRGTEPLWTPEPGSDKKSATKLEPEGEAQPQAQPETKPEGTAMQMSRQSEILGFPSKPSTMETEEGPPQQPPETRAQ

[16] = biological target: Tyrosine-protein kinase ABL2 (Homo sapiens) (UniProt P42684); assay: Inhibition of recombinant human ARG (38 to end residues) at 1 uM using EAIYAAPFAKKK as substrate after 40 mins in presence of [gamma-33P]ATP by scintillation counting method
Sequence of Tyrosine-protein kinase ABL2 (Homo sapiens) (P42684 whole entry): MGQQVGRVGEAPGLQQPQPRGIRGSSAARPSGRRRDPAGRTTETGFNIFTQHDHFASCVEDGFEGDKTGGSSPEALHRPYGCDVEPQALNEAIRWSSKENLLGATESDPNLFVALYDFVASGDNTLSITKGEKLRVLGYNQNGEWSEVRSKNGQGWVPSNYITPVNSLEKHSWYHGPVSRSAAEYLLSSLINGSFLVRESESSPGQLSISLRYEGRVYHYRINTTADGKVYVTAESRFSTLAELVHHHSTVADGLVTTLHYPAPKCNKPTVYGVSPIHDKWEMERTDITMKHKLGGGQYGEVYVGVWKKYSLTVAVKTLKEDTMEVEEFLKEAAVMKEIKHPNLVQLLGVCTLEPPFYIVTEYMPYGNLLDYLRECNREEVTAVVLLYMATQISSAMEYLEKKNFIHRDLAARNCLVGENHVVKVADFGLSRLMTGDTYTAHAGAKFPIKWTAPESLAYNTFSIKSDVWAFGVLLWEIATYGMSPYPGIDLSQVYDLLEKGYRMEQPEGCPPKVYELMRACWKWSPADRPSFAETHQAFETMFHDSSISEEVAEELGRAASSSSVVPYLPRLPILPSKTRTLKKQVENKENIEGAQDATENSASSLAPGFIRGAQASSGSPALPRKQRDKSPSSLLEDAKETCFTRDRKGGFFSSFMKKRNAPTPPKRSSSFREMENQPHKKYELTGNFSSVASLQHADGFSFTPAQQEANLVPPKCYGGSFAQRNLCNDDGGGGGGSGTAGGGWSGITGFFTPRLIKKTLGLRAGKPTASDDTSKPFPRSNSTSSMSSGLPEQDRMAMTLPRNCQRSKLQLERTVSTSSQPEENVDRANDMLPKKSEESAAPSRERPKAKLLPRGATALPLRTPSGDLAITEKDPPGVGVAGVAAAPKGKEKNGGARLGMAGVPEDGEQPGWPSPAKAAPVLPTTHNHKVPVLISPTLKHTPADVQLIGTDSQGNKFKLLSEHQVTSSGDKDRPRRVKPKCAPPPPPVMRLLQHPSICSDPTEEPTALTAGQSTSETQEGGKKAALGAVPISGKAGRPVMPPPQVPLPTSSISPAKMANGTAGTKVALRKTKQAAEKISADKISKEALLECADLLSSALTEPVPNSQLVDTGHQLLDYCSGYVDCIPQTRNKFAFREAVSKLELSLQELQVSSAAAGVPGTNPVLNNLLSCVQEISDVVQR

[17] = biological target: Serine/threonine-protein kinase N1 (Homo sapiens) (UniProt Q16512); assay: Inhibition of recombinant human PRK1 (498 to end residues) at 1 uM using KKLNRTLSFAEPG as substrate after 40 mins in presence of [gamma-33P]ATP by scintillation counting method
[18] = biological target: MAP kinase-activated protein kinase 2 (Homo sapiens) (UniProt P49137); assay: Inhibition of recombinant human MAPKAPK2 (46 to end residues) at 1 uM using KKLNRTLSVA as substrate after 40 mins in presence of [gamma-33P]ATP by scintillation counting method
[19] = biological target: Inhibitor of nuclear factor kappa-B kinase subunit epsilon (Homo sapiens) (UniProt Q14164); assay: Inhibition of recombinant full-length human IKKepsilon at 1 uM using casein as substrate after 40 mins in presence of [gamma-33P]ATP by scintillation counting method
[20] = biological target: Tyrosine-protein kinase Lyn (Homo sapiens) (UniProt P07948); assay: Inhibition of recombinant full-length human Lyn at 1 uM using poly(Glu,Tyr) 4:1 as substrate after 40 mins in presence of [gamma-33P]ATP by scintillation counting method
[21] = biological target: Death-associated protein kinase 3 (Homo sapiens) (UniProt O43293); assay: Inhibition of recombinant human ZIPK (1 to 290 residues) at 1 uM using KKLNRTLSFAEPG as substrate after 40 mins in presence of [gamma-33P]ATP by scintillation counting method
[22] = biological target: Inhibitor of nuclear factor kappa-B kinase subunit beta (Homo sapiens) (UniProt O14920); assay: Inhibition of recombinant full-length human IKKbeta at 1 uM using peptide as substrate after 40 mins in presence of [gamma-33P]ATP by scintillation counting method
[23] = biological target: Serine/threonine-protein kinase PLK3 (Homo sapiens) (UniProt Q9H4B4); assay: Inhibition of recombinant human Plk3 (19 to 301 residues) at 1 uM using casein as substrate after 40 mins in presence of [gamma-33P]ATP by scintillation counting method
[24] = biological target: Tyrosine-protein kinase Yes (Homo sapiens) (UniProt P07947); assay: Inhibition of recombinant full-length human Yes at 1 uM using poly(Glu,Tyr) 4:1 as substrate after 40 mins in presence of [gamma-33P]ATP by scintillation counting method

## CS(=O)(=O)c1ccc(-n2nc(-c3cnc4[nH]ccc4c3)c3c(N)ncnc32)cc1
[1]
  inhibition: -5%
[2]
  inhibition: 24%
[3]
  inhibition: -5%
[4]
  inhibition: 24%
[5]
  inhibition: 2%
[6]
  inhibition: 4%
[7]
  inhibition: 10%
[8]
  inhibition: 4%
[9]
  inhibition: 3%
[10]
  inhibition: 19%
[11]
  inhibition: 59%
[12]
  inhibition: 7%
[13]
  inhibition: 14%
[14]
  inhibition: -3%
[15]
  inhibition: -8%
[16]
  inhibition: 61%
[17]
  inhibition: -1%
[18]
  inhibition: -4%
[19]
  inhibition: 3%
[20]
  inhibition: 40%
[21]
  inhibition: 0%
[22]
  inhibition: -3%
[23]
  inhibition: 3%
[24]
  inhibition: 92%

Reference: ChEMBL document CHEMBL4190187, “Discovery of pyrazolopyrimidine derivatives as novel inhibitors of ataxia telangiectasia and rad3 related protein (ATR)” (Bioorg Med Chem Lett, 2017)
